Data reported in PMC12750270, “Design and Preclinical Evaluation of a ^68Ga-Labeled Macrocyclic Peptide PET Probe Targeting Transferrin Receptor 1 in Colorectal Cancer” (ACS Omega, 2025).

Experiments:
human TfR1 = target: T1, human TfR1 (Homo sapiens, UniProt P02786); assay: Surface plasmon resonance (SPR) binding affinity assay, Biacore 8K; details: recombinant human TfR1-Fc immobilized, read-out: association rate constant (Ka)
T1 construct: Fc; purchased Acro Biosystems TFR-H5264
Procedure: 1 (A) Synthetic scheme for^68 Ga-NOTA-TR01; (B) ESI-MS analysis of TR01; (C) Binding response (nm) between human TfR1 and varying concentrations (62.5–1,000 nM) of TR01; (D, E) Stability assessment of ^68 Ga-NOTA-TR01 in PBS and serum at 37 °C, measured by radio-HPLC.
SPR was employed to quantify the binding interaction between TR01 and TfR1.
The binding affinity of NOTA-TR01 to human TfR1 was evaluated by surface plasmon resonance (SPR) using a Biacore 8K system (Cytiva, USA) at Nanjing Genscript Probio. Recombinant human TfR1-Fc protein (TFR-H5264, Acro Biosystems) was immobilized on the sensor chip for kinetic analysis. The assay was performed under acidic conditions (pH 2.0) using a running buffer containing […]. Real-time binding data were collected at a 1:1 ligand-to-analyte ratio. The equilibrium dissociation constant (KD) was calculated by globally fitting the association and dissociation curves.

LOVO cells (TfR1 low) = assay: Cellular binding assay in LOVO cells; type: cell-based, human; details: 37 °C, 37 kBq, γ-counter, triplicate
Procedure: (§1) The percentage of added dose per 5 × 10^5 cells (%AD/5 × 10^5 cells) was as follows: at 30 min: 5.44 ± 0.12% (HT29) vs 2.63 ± 0.09% (LOVO), at 60 min: 6.36 ± 0.05% (HT29) vs 3.19 ± 0.23% (LOVO), at 120 min: 9.56 ± 0.17% (HT29) vs 4.51 ± 0.22% (LOVO).
(§2) The cell-specific binding of ^68Ga-NOTA-TR01 was evaluated in HT29 and LOVO cells. Cells were seeded in 12-well plates (5 × 10^5 cells/well) and cultured for 24 h under standard conditions (37 °C, 5% CO2). After washing with cold PBS, cells were incubated with 1 mL serum-free medium containing ^68Ga-NOTA-TR01 (37 kBq, ∼[…] corresponding to approximately 0.4 pmol of peptide). For blocking studies, parallel wells were pretreated with a 1,000-fold molar excess (3.3 nmol, 1 μg) of unlabeled TR01 peptide. Cellular binding was assessed at 0.5, 1, 2, and 4 h postincubation. Following incubation, cells were washed twice with ice-cold PBS, lysed in 1 M NaOH, and the associated radioactivity was measured using a γ-counter. Radioactivity data were corrected for decay using the ^68Ga decay constant (λ = 0.00876 min^– 1). Each condition was measured in triplicate for statistical accuracy.

HT29 cells (TfR1 high) = assay: Cellular binding/blocking assay in HT29 cells; type: cell-based, human; details: for cellular binding: HT29, 37 °C, 37 kBq, γ-counter, triplicate
Procedure: as §1, §2

physchem = type: physicochemical
Procedure: The molar activity was determined to be greater than 20 GBq/μmol. The log P was calculated as −1.709 ± 0.121 (n = 6), indicating a hydrophilic profile.
The lipophilicity of ^68Ga-NOTA-TR01 was determined via a standard octanol–water partition method. A solution of ^68Ga-NOTA-TR01 [5 μL, 0.74 MBq in phosphate-buffered saline (PBS)] was mixed with 0.5 mL n-octanol and 0.495 mL PBS. The biphasic system was vortexed for 3 min and centrifuged at 4,000 rpm for 5 min to achieve phase separation. Aliquots (100 μL) from each layer were sampled, and radioactivity was measured using a γ-counter. The log P was calculated using the formula: log P = log (cpm_octanol/cpm_PBS).

[1] = type: physicochemical; details: 37 °C, 24 h, ∼3.7 MBq in 200 μL, radio-HPLC
Procedure: Collectively, these findings confirmed the suitability of ^68Ga-NOTA-TR01 for further preclinical applications.
[…] At each time point, radiochemical integrity was assessed via radio-HPLC by comparing the retention time of the incubated samples with that of a nonincubated control.

in vivo = assay: in vivo; design: species or system BALB/c nude mice; details: BALB/c nude, mouse, iv, total radioactivity
Procedure: Three mice were included at each time point; %ID/g is the percentage of injected dose per gram of tissue.
Xenograft tumor models were established by subcutaneously injecting 1 × 10^7 LOVO or HT29 cells (in 100 μL PBS) into the right flank of 5–6-week-old BALB/c nude mice (purchased from Hangzhou Ziyuan Experimental Animal Technology). Tumor growth was monitored by caliper measurement, and imaging experiments were initiated once tumors reached a volume of 100–300 mm^3. All animal procedures were conducted in accordance with the institutional guidelines of the Animal Care and Use Committee at Soochow University.
A comparative biodistribution study was conducted in BALB/c nude mice (n = 3 per group), each intravenously injected with ^68Ga-NOTA-TR01 (1.85 ± 0.49 MBq, corresponding to ∼0.15 nmol peptide, in 100 μL saline). At 30-, 60-, and 120 min postinjection, mice were euthanized for terminal blood collection and organ harvesting. For blocking studies, an additional cohort was sacrificed at 60 min following coinjection with cold NOTA-TR01 (300 μg, ∼0.1 μmol per mouse). Excised tissues were perfused three times with PBS to remove residual blood, weighed, and their radioactivity quantified using a γ-counter. The biodistribution of the radiotracer was expressed as %ID/g. Tumor-to-background ratios (TBRs) were calculated to assess tracer specificity.

T1 sequence (P02786 whole entry): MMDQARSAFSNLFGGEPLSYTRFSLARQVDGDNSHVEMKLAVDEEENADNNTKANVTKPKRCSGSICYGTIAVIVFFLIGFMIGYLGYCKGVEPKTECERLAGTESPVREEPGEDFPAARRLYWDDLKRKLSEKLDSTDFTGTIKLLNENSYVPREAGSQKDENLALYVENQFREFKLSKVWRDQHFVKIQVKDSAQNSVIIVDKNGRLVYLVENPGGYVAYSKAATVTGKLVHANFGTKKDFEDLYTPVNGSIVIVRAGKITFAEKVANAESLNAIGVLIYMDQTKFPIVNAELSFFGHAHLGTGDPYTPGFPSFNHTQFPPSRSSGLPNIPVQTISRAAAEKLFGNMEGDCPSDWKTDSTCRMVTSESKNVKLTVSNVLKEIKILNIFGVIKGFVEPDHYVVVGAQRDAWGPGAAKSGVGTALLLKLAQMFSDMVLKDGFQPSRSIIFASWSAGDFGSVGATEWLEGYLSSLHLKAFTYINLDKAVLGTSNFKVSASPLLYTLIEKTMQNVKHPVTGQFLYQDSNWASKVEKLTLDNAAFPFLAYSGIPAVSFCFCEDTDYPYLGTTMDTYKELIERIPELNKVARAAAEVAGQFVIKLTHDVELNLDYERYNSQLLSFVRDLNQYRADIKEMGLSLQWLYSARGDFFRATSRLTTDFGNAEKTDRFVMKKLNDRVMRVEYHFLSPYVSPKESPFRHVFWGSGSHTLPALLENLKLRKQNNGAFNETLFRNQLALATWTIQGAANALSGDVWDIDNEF

kon (human TfR1) [M⁻¹ s⁻¹] | SMILES | cellular binding (LOVO cells (TfR1 low); 30 min) [%AD/5 × 10^5 cells] | cellular binding (LOVO cells (TfR1 low); 60 min) [%AD/5 × 10^5 cells] | cellular binding (LOVO cells (TfR1 low); 120 min) [%AD/5 × 10^5 cells] | cellular binding (HT29 cells (TfR1 high); 30 min) [%AD/5 × 10^5 cells] | cellular binding (HT29 cells (TfR1 high); 60 min) [%AD/5 × 10^5 cells] | cellular binding (HT29 cells (TfR1 high); 120 min) [%AD/5 × 10^5 cells] | cellular binding, blocking group (HT29 cells (TfR1 high); HT29, preincubation with 1,000-fold molar excess of unlabeled TR01, 30 min) [%] | cellular binding, blocking group (HT29 cells (TfR1 high); HT29, preincubation with 1,000-fold molar excess of unlabeled TR01, 60 min) [%] | cellular binding, blocking group (HT29 cells (TfR1 high); HT29, preincubation with 1,000-fold molar excess of unlabeled TR01, 120 min) [%] | inhibition of cell binding by cold peptide (HT29 cells (TfR1 high); HT29 cells, cold peptide) | logD (physchem) | radiochemical integrity after incubation in PBS [1] [%] | tissue to tissue ratio at 2 h (in vivo)
77300 | CC[C@H](C)[C@@H]1NC(=O)[C@H](Cc2ccc(O)cc2)NC(=O)[C@H](Cc2ccc(O)cc2)NC(=O)[C@H](CC(N)=O)NC(=O)[C@H](Cc2c[nH]c3ccccc23)NC(=O)[C@H](C(C)C)NC(=O)[C@H](Cc2ccccc2)NC(=O)[C@H](C(C)C)NC(=O)[C@H](C)NC(=O)CSC[C@@H](C(=O)NCCOCCOCCOCCOCCOCCOCCOCCOCCOCCOCCOCCOCCC(=O)N[C@@H](CCCCNC(=O)CN2CCN(CC(=O)O)CCN(CC(=O)O)CC2)C(=O)O)NC(=O)[C@H](Cc2ccc(O)cc2)N(C)C(=O)[C@H](Cc2ccc(O)cc2)NC(=O)[C@H](CCCNC(=N)N)NC(=O)[C@H](CCCNC(=N)N)NC(=O)[C@H]([C@@H](C)CC)NC1=O [NOTA-TR01, cyclo(Ac-Ala-Val-Phe-Val-Trp-Asn-Tyr-Tyr-Ile-Ile-Arg-Arg-Tyr-NMe-Tyr-Cys)-PEG12-Lys-NOTA] | – | – | – | – | – | – | – | – | – | – | – | – | –
– | CC[C@H](C)[C@@H]1NC(=O)[C@H](Cc2ccc(O)cc2)NC(=O)[C@H](Cc2ccc(O)cc2)NC(=O)[C@H](CC(N)=O)NC(=O)[C@H](Cc2c[nH]c3ccccc23)NC(=O)[C@H](C(C)C)NC(=O)[C@H](Cc2ccccc2)NC(=O)[C@H](C(C)C)NC(=O)[C@H](C)NC(=O)CSC[C@@H](C(=O)NCCOCCOCCOCCOCCOCCOCCOCCOCCOCCOCCOCCOCCC(=O)N[C@@H](CCCCNC(=O)CN2CCN(CC(=O)O)CCN(CC(=O)O)CC2)C(=O)O)NC(=O)[C@H](Cc2ccc(O)cc2)N(C)C(=O)[C@H](Cc2ccc(O)cc2)NC(=O)[C@H](CCCNC(=N)N)NC(=O)[C@H](CCCNC(=N)N)NC(=O)[C@H]([C@@H](C)CC)NC1=O [^68Ga-NOTA-TR01, metal not drawn] | 2.63 ± 0.09 | 3.19 ± 0.23 | 4.51 ± 0.22 | 5.44 ± 0.12 | 6.36 ± 0.05 | 9.56 ± 0.17 | 1.58 ± 0.06 | 1.34 ± 0.29 | 1.27 ± 0.09 | over 85% | -1.71 ± 0.121 | > 98 | > 7
